Assay results reported in US20190284149A1, “ARYL HYDROCARBON RECEPTOR MODULATOR” (ARIAGEN, INC., priority 2014, published 2019).
pEC50: −log10 of the molar value. Where two headings read alike, the source gives them in different places.

Target: T1, AhR receptor (Homo sapiens, UniProt P35869)
T1 construct: expression of native (Human Hepatoma Huh-7) AhR receptor reporter gene cells; endogenous in cells; host or cells: Human hepatoma Huh-7 reporter cells (firefly luciferase under receptor-specific response elements)
T1 sequence (P35869 11-848): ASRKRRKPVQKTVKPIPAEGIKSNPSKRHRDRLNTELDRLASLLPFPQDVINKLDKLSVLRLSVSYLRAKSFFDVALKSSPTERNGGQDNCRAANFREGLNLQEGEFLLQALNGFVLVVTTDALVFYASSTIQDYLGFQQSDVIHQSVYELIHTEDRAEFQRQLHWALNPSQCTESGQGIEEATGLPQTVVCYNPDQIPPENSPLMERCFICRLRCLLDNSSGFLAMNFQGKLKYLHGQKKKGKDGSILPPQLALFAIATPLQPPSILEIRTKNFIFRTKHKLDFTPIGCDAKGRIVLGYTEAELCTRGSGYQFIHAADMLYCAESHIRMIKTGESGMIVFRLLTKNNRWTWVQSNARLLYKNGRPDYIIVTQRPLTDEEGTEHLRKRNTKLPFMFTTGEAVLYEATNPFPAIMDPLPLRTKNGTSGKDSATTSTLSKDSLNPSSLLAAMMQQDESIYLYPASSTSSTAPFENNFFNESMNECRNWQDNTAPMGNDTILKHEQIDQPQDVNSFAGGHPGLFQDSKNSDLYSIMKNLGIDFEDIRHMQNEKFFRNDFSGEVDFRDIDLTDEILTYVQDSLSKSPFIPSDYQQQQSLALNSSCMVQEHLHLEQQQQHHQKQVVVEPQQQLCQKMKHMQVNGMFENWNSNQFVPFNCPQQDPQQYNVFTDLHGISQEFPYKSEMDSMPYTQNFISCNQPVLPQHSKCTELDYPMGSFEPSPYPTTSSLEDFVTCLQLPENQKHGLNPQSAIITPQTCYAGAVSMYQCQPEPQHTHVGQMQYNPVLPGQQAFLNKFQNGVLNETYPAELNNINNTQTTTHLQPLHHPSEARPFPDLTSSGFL
Assay: AhR agonism assay (luciferase reporter gene cells)
Type: cell-based
Protocol: Assay Materials (plasmids): expression of native (Human Hepatoma Huh-7) AhR receptor reporter gene cells, the reporter vector includes functional firefly luciferase gene linked to upstream receptor-specific genetic response elements (GRE).
The AhR agonism assay comprises the following three steps:
1. Cell implantation: a suspension of AhR receptor cells was prepared in cell recovery medium (CRM; FBS containing 10% activated carbon). Then, the prepared suspension (100 μl) was dispensed into wells of a white 96-well culture plate.
2. Right before the beginning of the experiment, Master Stocks were diluted to “2× concentration” treatment media with appropriate compound screening media (CSM: FBS containing 10% activated carbon). The test compounds were subjected to gradient dilution with CSM medium containing 0.2% DMSO, so that the final concentration of DMSO in each experimental well for each treatment group was 0.1%. […] The experimental plate was placed in an incubator at 37° C. for 24 h.
3. Fluorescence detection and analysis: after completion of the incubation, the treatment media were discarded and 100 μL/well of luciferase detection reagent was added. The Ave RLU (average relative fluorescence intensity) of each well and the coefficient of variation for each experimental group were determined. The activity of AhR receptor with various concentrations of the test compounds was quantitatively determined using a ratio of Ave RLU^Test Cmpd of various concentrations of the test compounds in the experimental group to Ave RLU^Vehicle of the blank control group, and fold activation and EC50 were determined.
For data processing method, refer to J. Biomol.

[1] = Human Hepatoma Huh-7 AhR reporter gene cells, 24 h incubation at 37° C., 0.1% DMSO, read-out: EC50

Row | Structure (SMILES) | pEC50 [1] | pEC50
1 | COC(=O)c1csc(C(=O)c2cn(COC(=O)[C@@H](N)C(C)C)c3ccccc23)n1 [Compound 1-2] | 6.00 to 9.00 | 
2 | COC(=O)c1csc(C(=O)c2cn(COC(=O)[C@@H](N)C(C)(C)C)c3ccccc23)n1 [Compound 2-2] | 6.00 to 9.00 | 
3 | COC(=O)COCn1cc(C(=O)c2nc(C(=O)OC)cs2)c2ccccc21 [Compound 3] | 6.00 to 9.00 | 
4 | COC(=O)c1csc(C(=O)c2cn(C(=O)[C@@H](N)C(C)C)c3ccccc23)n1 [Compound 4-2] | 6.00 to 9.00 | 
5 | COCCOCCOCCOC(=O)n1cc(C(=O)c2nc(C(=O)OC)cs2)c2ccccc21 [Compound 5] | 6.00 to 9.00 | 
6 | COCCOCCOCCOCC(=O)OCn1cc(C(=O)c2nc(C(=O)OC)cs2)c2ccccc21 [Compound 6] | 6.00 to 9.00 | 
7 | COCCOCCOCCOCC(=O)OCC(=O)OCn1cc(C(=O)c2nc(C(=O)OC)cs2)c2ccccc21 [Compound 7] | 6.00 to 9.00 | 
8 | COC(=O)c1nsc(C(=O)c2c[nH]c3ccccc23)n1 [Compound 8] |  | 5.00 to 6.00
9 | CC(C)c1nc(C(=O)c2c[nH]c3ccccc23)cs1 [Compound 9] |  | 6.00 to 9.00
10 | CC(C)c1cnc(C(=O)c2c[nH]c3ccccc23)s1 [Compound 10] | 4.00 to 5.00 | 
11 | COC(=O)c1ccc(C(=O)c2c[nH]c3ccccc23)n1C [Compound 12] | 6.00 to 9.00 | 
12 | COC(=O)c1csc(C(=O)c2c[nH]c3ccccc23)c1 [Compound 15] |  | 4.00 to 5.00
13 | COC(=O)c1ccc(C(=O)c2c[nH]c3ccccc23)nc1 [Compound 18] |  | 5.00 to 6.00
14 | COC(=O)C1CSC(C(=O)c2c[nH]c3ccc(OC)cc23)=N1 (centres unmarked) [Compound 19-1] | 6.00 to 9.00 | 
15 | COC(=O)c1csc(C(=O)c2c[nH]c3ccc(OC)cc23)n1 [Compound 19-2] | 6.00 to 9.00 | 
16 | O=C(c1nc(-c2ccccn2)cs1)c1c[nH]c2ccccc12 [Compound 22] | 6.00 to 9.00 | 
17 | COC(=O)c1c[nH]c(C(=O)c2c[nH]c3ccccc23)n1 [Compound 23] | 6.00 to 9.00 | 
18 | CO/N=C(/c1nc(C(=O)OC)cs1)c1c[nH]c2ccccc12 [Compound 25-1] | 5.00 to 6.00 | 
19 | CO/N=C(\c1nc(C(=O)OC)cs1)c1c[nH]c2ccccc12 [Compound 25-2] | 5.00 to 6.00 | 
20 | COC(=O)c1csc(/C(=N/O)c2c[nH]c3ccccc23)n1 [Compound 26-1] | 5.00 to 6.00 | 
21 | COC(=O)c1csc(/C(=N\O)c2c[nH]c3ccccc23)n1 [Compound 26-2] | 5.00 to 6.00 | 
22 | COC(=O)CNC(=O)c1csc(C(=O)c2c[nH]c3ccccc23)n1 [Compound 27] | 6.00 to 9.00 | 
23 | COC(=O)c1csc(Cc2c[nH]c3ccccc23)n1 [Compound 28] | 4.00 to 5.00 | 
24 | N#Cc1csc(C(=O)c2c[nH]c3ccccc23)n1 [Compound 29] | 6.00 to 9.00 | 

Row | Structure (SMILES) | pEC50 [1] | pEC50
25 | COC(=O)[C@@H]1COC(c2csc(C(=O)c3c[nH]c4ccccc34)n2)=N1 [Compound 30-1] | 6.00 to 9.00 | 
26 | COC(=O)c1coc(-c2csc(C(=O)c3c[nH]c4ccccc34)n2)n1 [Compound 30-2] | 6.00 to 9.00 | 
27 | O=C(c1nc(C2=NCCS2)cs1)c1c[nH]c2ccccc12 [Compound 31-1] | 6.00 to 9.00 | 
28 | O=C(c1nc(-c2nccs2)cs1)c1c[nH]c2ccccc12 [Compound 31-2] | 6.00 to 9.00 | 
29 | COC(=O)C1CSC(c2csc(C(=O)c3c[nH]c4ccccc34)n2)=N1 (centres unmarked) [Compound 32-1] | 6.00 to 9.00 | 
30 | COC(=O)c1csc(-c2csc(C(=O)c3c[nH]c4ccccc34)n2)n1 [Compound 32-2] | 6.00 to 9.00 | 
31 | O=C(c1nc(C2=NCCO2)cs1)c1c[nH]c2ccccc12 [Compound 33-1] | 6.00 to 9.00 | 
32 | O=C(c1nc(-c2ncco2)cs1)c1c[nH]c2ccccc12 [Compound 33-2] | 6.00 to 9.00 | 
33 | COC(=O)c1nnc(C(=O)c2c[nH]c3ccccc23)o1 [Compound 34] | 5.00 to 6.00 | 
34 | O=C(c1nc(-c2nnn[nH]2)cs1)c1c[nH]c2ccccc12 [Compound 35] | 5.00 to 6.00 | 
35 | O=C(c1nc(-c2nnc[nH]2)cs1)c1c[nH]c2ccccc12 [Compound 36] | 6.00 to 9.00 | 
36 | COC(=O)c1csc(C(=O)c2cn(CO)c3ccccc23)n1 [Compound 37] |  | 6.00 to 9.00
37 | COC(=O)c1csc(C(=O)c2cn(C3OC(COC(C)=O)C(OC(C)=O)C(OC(C)=O)C3OC(C)=O)c3ccccc23)n1 (centres unmarked) [Compound 38-1] | 6.00 to 9.00 | 
38 | COC(=O)c1csc(C(=O)c2cn(C3OC(COC(C)=O)C(OC(C)=O)C(OC(C)=O)C3OC(C)=O)c3ccccc23)n1 (centres unmarked) [Compound 38-2] | 6.00 to 9.00 | 
39 | COC(=O)c1csc(C(=O)c2cn(C3OC(COC(C)=O)C(O)C(O)C3O)c3ccccc23)n1 (centres unmarked) [Compound 38-3] | 6.00 to 9.00 | 
40 | COC(=O)c1csc(C(=O)c2cn(C3OC(CO)C(O)C(O)C3O)c3ccccc23)n1 (centres unmarked) [Compound 38-4] | 6.00 to 9.00 | 
41 | O=C(c1nc(-c2cnccn2)cs1)c1c[nH]c2ccccc12 [Compound 39] | 6.00 to 9.00 | 
42 | O=C(c1nc(-c2ccco2)cs1)c1c[nH]c2ccccc12 [Compound 40] | 6.00 to 9.00 | 
43 | O=C(c1nc(C2CC2)cs1)c1c[nH]c2ccccc12 [Compound 41] | 6.00 to 9.00 | 
44 | CC(C)[C@H](NC(=O)OC(C)(C)C)C(=O)n1cc(C(=O)c2nc(-c3nccs3)cs2)c2ccccc21 [Compound 42-1] | 6.00 to 9.00 | 
45 | CC(C)[C@H](N)C(=O)n1cc(C(=O)c2nc(-c3nccs3)cs2)c2ccccc21 [Compound 42-2] | 6.00 to 9.00 | 
46 | O=C(c1nc(-c2c[nH]cn2)cs1)c1c[nH]c2ccccc12 [Compound 43-2] | 6.00 to 9.00 | 
47 | Nc1nc(-c2csc(C(=O)c3c[nH]c4ccccc34)n2)cs1 [Compound 44] | 6.00 to 9.00 | 
